Read-outs that look alike come from different tables or passages of the source.
Legend:
[1] = tested on: HIV mutant strain K103N/Y181C; assay: Cell-based assay using BH-10 cells, K103N/Y181C mutant
Description: (§1) In a typical embodiment, the NNRTIs display an EC50 in a mutant HIV strain of less than approximately 5, 2.5, 1 or 0.1 μM concentration. The degree of cross-resistance against a drug resistant strain of HIV is measured by assessing the EC50 of the desired oxo-pyrimidine compound in the target mutated, i.e., drug resistant, virus.
(§2) The degree of cross-resistance against a drug resistant strain of HIV can easily be measured by assessing the EC50 of the desired indole in the target mutated i.e., drug resistant, virus.

[2] = target: HIV reverse transcriptase Y181C (Human immunodeficiency virus type 1 group M subtype B, UniProt P03366, Y780C); assay: Enzyme assay, reverse transcriptase Y181C; assay type: biochemical, HIV-1
Text: (§3) As used herein, “reverse transcriptase” or “RT” refers to an enzyme having a non-nucleoside inhibitory binding site similar to that of HIV-1 RT, and to which ligands, which bind the composite binding pocket of the compounds of the present invention, also will bind. One measure of RT activity is viral replication. A measure of HIV-1 viral replication is the automated assay that utilizes MTT, as described earlier in this specification. Another measure is the p24 core antigen enzyme immunoassay, such as, for example, the assay commercially available from Coulter Corporation/Immunotech, Inc.® (Westbrook, Mich.). Another means for measuring RT activity is by assaying recombinant HIV-1 reverse transcriptase activity, such as, for example, by using the Quan-T-RT™ assay system commercially available from Amersham® (Arlington Heights, Ill.) and as described by Bosworth et al., Nature, 1989, 341:167-168.
(§4) The 3-phosphoindoles can be assessed for their ability to inhibit reverse transcriptase activity in vitro according to standard screening methods.

[3] = target: HIV reverse transcriptase K103N (Human immunodeficiency virus type 1 group M subtype B, UniProt P03366, K702N); assay: Enzyme assay, reverse transcriptase K103N; assay type: biochemical, HIV-1
Text: as §3, §4

[4] = target: HIV reverse transcriptase K103N/Y181C (Human immunodeficiency virus type 1 group M subtype B, UniProt P03366, K702N/Y780C); assay: Enzyme assay, reverse transcriptase K103N/Y181C; assay type: biochemical, HIV-1
Text: as §3, §4

[5] = target: HIV reverse transcriptase WT (Human immunodeficiency virus type 1 group M subtype B, UniProt P03366); assay: Enzyme assay, reverse transcriptase WT; assay type: biochemical, HIV-1
Text: as §3, §4

HIV mutant strain Y181C = assay: Cell-based assay using BH-10 cells, Y181C mutant
Description: as §1, §2

HIV BH-10 WT = assay: Cell-based assay using BH-10 cells, wild type
[6] = Human immunodeficiency virus 1, read-out: EC50 K103N/Y181C, BH-10 cells, K103N/Y181C mutant
[7] = Human immunodeficiency virus 1, read-out: EC50 Y181C, BH-10 cells, Y181C mutant
[8] = Human immunodeficiency virus 1, read-out: EC50 WT///B, BH-10 cells, wild type

Compound | EC50 [1, 6] | IC50 [2] | IC50 [3] | IC50 [4] | IC50 [5] | EC50 (HIV mutant strain Y181C; [7]) | EC50 (HIV BH-10 WT; [8]) | EC50 ([1]; BH-10 cells, K103N/Y181C mutant, read-out: EC50 K103N/Y181C) | EC50 (HIV mutant strain Y181C; BH-10 cells, Y181C mutant, read-out: EC50 Y181C) | EC50 (HIV BH-10 WT; BH-10 cells, wild type, read-out: EC50 WT///B)
CCOP(=O)(c1cc(C)cc(C)c1)c1c(C(=O)NCc2ccncc2)[nH]c2ccc(Cl)cc12 (stereo not shown) [Compound 9a] | 8 nM | 4490 nM | 3360 nM | > 5000 nM | 3410 nM | 57.7 nM | 11 nM | – | – | –
COP(=O)(c1ccccc1)c1c(C(=O)NCc2ccncc2)[nH]c2ccc(Cl)cc12 (stereo not shown) [Compound 18ar] | 3.9 nM | 489 nM | 930 nM | 1660 nM | 156 nM | 5.6 nM | 1 nM | – | – | –
COP(=O)(c1ccccc1)c1c(C(N)=O)[nH]c2ccccc12 (stereo not shown) [Compound 7ai] | 706 nM | 5610 nM | 6590 nM | > 5000 nM | 393 nM | 1110 nM | 1 nM | – | – | –
CCOP(=O)(c1cc(C)cc(C)c1)c1c(C(N)=O)[nH]c2ccc(Cl)cc12 (stereo not shown) [Compound 6b] | 51.7 nM | 4310 nM | 2610 nM | > 5000 nM | 1640 nM | 28 nM | 3 nM | – | – | –
NC(=O)c1[nH]c2ccc(Cl)cc2c1P(=O)(O)c1ccccc1 [Compound 60a] | > 1250 nM | > 5000 nM | > 5000 nM | > 5000 nM | > 5000 nM | > 1250 nM | > 1250 nM | – | – | –
CCOP(=O)(c1ccc(F)cc1)c1c(C(N)=O)[nH]c2ccc(Cl)cc12 (stereo not shown) [Compound 6c] | > 1250 nM | > 5000 nM | > 5000 nM | > 5000 nM | 3620 nM | > 1250 nM | 34.5 nM | – | – | –
CCOP(=O)(c1ccccc1F)c1c(C(N)=O)[nH]c2ccc(Cl)cc12 (stereo not shown) [Compound 6ad] | 17 nM | 4350 nM | 3290 nM | > 5000 nM | 433 nM | 58.3 nM | 0.9 nM | – | – | –
CCOP(=O)(c1ccccc1)c1c(C(N)=O)[nH]c2ccc(Cl)cc12 (stereo not shown) [Compound 6a] | 16.4 nM | 1970 nM | 1630 nM | > 5000 nM | 722 nM | 13.7 nM | 1.2 nM | – | – | –
CN(C)P(=O)(c1ccccc1)c1c(C(N)=O)[nH]c2ccc(Cl)cc12 (stereo not shown) [Compound 31a] | > 1250 nM | > 5000 nM | > 5000 nM | > 5000 nM | 1400 nM | 467 nM | 13.9 nM | – | – | –
CCOP(=O)(c1cc(F)cc(F)c1)c1c(C(N)=O)[nH]c2ccc(Cl)cc12 (stereo not shown) [Compound 6ac] | > 1250 nM | 3500 nM | 12700 nM | > 5000 nM | 726 nM | 986 nM | 3.7 nM | – | – | –
COP(=O)(c1ccccc1)c1c(C(N)=O)[nH]c2ccc(Cl)cc12 (stereo not shown) [Compound 7ah] | 3.4 nM | 349 nM | 389 nM | 6750 nM | 309 nM | 4.9 nM | 0.4 nM | – | – | –
NC(=O)c1[nH]c2ccc(Cl)cc2c1P(=O)(c1ccccc1)c1ccccc1 [Compound 27a] | > 1250 nM | > 5000 nM | > 5000 nM | > 5000 nM | > 5000 nM | > 1250 nM | > 1250 nM | – | – | –
CP(=O)(c1ccccc1)c1c(C(N)=O)[nH]c2ccc(Cl)cc12 (stereo not shown) [Compound 29a] | 1380 nM | 2520 nM | > 5000 nM | > 5000 nM | 233 nM | 266 nM | 0.8 nM | – | – | –
COP(=O)(c1cccc(C(C)C)c1)c1c(C(N)=O)[nH]c2ccc(Cl)cc12 (stereo not shown) [Compound 7g] | 7.7 nM | – | – | – | – | 8.8 nM | 2.5 nM | – | – | –
COP(=O)(c1cc(C)cc(C)c1)c1c(C(=O)NCc2ccncc2F)[nH]c2ccc(Cl)cc12 (stereo not shown) [Compound 18h] | 4.3 nM | – | – | – | – | 14.3 nM | 1.7 nM | – | – | –
C=Cc1cccc(P(=O)(OC)c2c(C(N)=O)[nH]c3ccc(Cl)cc23)c1 (stereo not shown) [Compound 18aaq] | 27.6 nM | – | – | – | – | 18.4 nM | 7.2 nM | – | – | –
COP(=O)(c1cc(C)cc(C)c1)c1c(C(=O)NCc2ccccc2C(F)(F)F)[nH]c2ccc(Cl)cc12 (stereo not shown) [Compound 18aal] | 21.8 nM | – | – | – | – | 19.7 nM | 30.1 nM | – | – | –
COP(=O)(c1cc(C)cc(C)c1)c1c(C(=O)NCc2c(F)ccc(F)c2F)[nH]c2ccc(Cl)cc12 (stereo not shown) [CONHCH2(Ph: 2,3,6-tri-F)] | – | – | – | – | – | – | – | 22.8 nM | 17.1 nM | 17.9 nM
COP(=O)(c1cccc(CO)c1)c1c(C(N)=O)[nH]c2ccc(Cl)cc12 (stereo not shown) [Compound 7aq] | 126 nM | – | – | – | – | 83.1 nM | 2.5 nM | – | – | –

Source: patent US7534809B2, “Phospho-indoles as HIV inhibitors” (priority 2004, dated 2009)
